{
  "source": "patent US11136351B2",
  "about": "(priority 2016, dated 2021)",
  "details": "pH 1.2",
  "note": "Residues, ends and D or L forms follow the SMILES beside them.",
  "data": [
    {"compound": "N=C(N)NCCC[C@@H]1NC(=O)[C@@H]2CCCN2C(=O)[C@H](CC(=O)O)NC(=O)[C@H](CO)NC(=O)[C@H](CO)NC(=O)[C@@H](NC(=O)CN)CSSC[C@@H](C(N)=O)NC1=O", "note": "[[Ser^3]Vc1.1(1-8)] (HELM PEPTIDE1{G.C.S.S.D.P.R.C.[am]}$PEPTIDE1,PEPTIDE1,2:R3-8:R3$$$V2.0)", "values": [
      {"measurement": "stability in simulated gastric fluid", "value": "good stability"}
    ]}
  ]
}
